From patent US9078909B2, “Tertiary amines, medicaments containing said amines, use thereof and processes for the preparation thereof” (Boehringer Ingelheim International GmbH, priority 2012, dated 2015)

Molecular target: T1, epithelial sodium channel (ENaC) (Mus musculus, UniProt Q61180+Q9WU38+Q9WU39)
T1 construct: Mouse kidney M-1 cells were cultivated in DMEM; endogenous in cells; host or cells: mouse kidney M-1 cells (cortical collecting duct line), dexamethasone-treated, on transwell filters
T1 sequence (Q61180 1-699): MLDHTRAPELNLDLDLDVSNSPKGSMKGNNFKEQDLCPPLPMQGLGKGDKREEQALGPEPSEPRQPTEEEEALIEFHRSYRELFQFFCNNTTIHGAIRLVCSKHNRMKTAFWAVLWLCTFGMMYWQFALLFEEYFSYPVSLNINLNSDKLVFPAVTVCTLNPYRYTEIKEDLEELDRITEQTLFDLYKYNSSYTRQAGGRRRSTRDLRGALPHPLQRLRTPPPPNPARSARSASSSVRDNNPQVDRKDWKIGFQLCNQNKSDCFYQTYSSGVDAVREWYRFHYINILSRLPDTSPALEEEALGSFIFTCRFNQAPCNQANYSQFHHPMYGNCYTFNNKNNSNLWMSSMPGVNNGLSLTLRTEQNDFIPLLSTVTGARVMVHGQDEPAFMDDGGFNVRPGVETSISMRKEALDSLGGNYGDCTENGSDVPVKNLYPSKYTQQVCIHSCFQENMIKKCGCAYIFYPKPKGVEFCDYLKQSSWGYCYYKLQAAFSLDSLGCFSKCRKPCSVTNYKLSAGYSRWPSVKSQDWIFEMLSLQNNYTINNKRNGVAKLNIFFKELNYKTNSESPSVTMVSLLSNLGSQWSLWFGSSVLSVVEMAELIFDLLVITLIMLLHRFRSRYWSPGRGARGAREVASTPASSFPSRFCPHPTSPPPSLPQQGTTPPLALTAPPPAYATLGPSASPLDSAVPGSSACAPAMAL
T1 sequence (Q9WU38 1-638): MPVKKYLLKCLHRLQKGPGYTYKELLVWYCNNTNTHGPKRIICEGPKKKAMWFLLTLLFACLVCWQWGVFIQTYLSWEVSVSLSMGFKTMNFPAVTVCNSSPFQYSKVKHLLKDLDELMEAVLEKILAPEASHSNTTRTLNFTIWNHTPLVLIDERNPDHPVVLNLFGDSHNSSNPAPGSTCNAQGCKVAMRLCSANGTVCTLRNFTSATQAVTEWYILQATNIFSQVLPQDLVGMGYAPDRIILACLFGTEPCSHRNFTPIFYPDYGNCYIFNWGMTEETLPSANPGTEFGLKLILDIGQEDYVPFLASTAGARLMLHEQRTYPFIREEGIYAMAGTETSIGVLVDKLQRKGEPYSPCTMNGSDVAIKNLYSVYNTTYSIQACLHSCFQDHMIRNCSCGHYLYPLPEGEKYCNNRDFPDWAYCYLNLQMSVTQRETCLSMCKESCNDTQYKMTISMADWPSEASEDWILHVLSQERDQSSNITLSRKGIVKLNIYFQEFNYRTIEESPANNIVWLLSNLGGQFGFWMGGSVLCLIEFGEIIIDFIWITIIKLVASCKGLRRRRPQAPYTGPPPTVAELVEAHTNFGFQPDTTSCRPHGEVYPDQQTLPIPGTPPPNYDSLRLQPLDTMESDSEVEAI
T1 sequence (Q9WU39 1-655): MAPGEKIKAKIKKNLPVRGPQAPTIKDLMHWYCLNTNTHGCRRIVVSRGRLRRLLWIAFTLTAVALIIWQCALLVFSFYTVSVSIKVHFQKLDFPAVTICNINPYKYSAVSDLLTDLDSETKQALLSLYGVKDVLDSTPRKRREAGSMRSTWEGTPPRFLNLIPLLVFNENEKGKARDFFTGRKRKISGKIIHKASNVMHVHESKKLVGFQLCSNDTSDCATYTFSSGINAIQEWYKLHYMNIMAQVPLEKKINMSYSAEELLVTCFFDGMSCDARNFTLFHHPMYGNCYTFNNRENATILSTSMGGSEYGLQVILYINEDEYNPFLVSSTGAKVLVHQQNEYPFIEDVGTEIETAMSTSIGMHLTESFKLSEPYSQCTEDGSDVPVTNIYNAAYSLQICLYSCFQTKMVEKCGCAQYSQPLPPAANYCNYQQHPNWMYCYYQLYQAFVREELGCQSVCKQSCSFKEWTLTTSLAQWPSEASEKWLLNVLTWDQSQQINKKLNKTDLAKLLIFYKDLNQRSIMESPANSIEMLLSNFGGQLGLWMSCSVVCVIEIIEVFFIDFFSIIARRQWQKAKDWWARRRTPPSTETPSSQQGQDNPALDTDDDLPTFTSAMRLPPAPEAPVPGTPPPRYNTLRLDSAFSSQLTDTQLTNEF
Assay: Ussing Chamber assay: inhibition of amiloride sensitive short circuit current (I_sc) in M-1 cells
Type: cell-based
Conditions: Ussing Chamber; mouse kidney M-1 cells on transwell filters; short circuit current; compound added to apical solution; 37° C.; read-out: IC50
Description: Ussing Chamber: Mouse kidney M-1 cells were cultivated in DMEM containing 5% FCS and 5 μM dexamethasone for 10 to 12 days on polyester transwell filters. Filters were inserted into a teflon-coated well-plate which fit into the in-house ussing chamber system. Prior to measurement the medium of M-1 cells was replaced with Caco-2 transport buffer (Invitrogen, Germany). During measurements, the Ussing chamber temperature was kept at 37° C. Short circuit currents (I_sc) were measured in the voltage-clamp mode using an in-house built amplifier (Boehringer Ingelheim, Biberach) with the software package Lab View for data acquisition and analysis. The transepithelial electrical resistance (TEER) was determined by the application of voltage steps of ±5 mV every 5 sec. Compounds were administered at a final concentration of 3 μM or at increasing concentrations (e.g. 1-3-10 μM) to the apical solution. At the end of each experiment the amiloride sensitive I_SC was measured by adding 3 μM amiloride to the apical compartment. Results are expressed as inhibition in percent of the amiloride effect or as IC50.
With the example compounds given above, the following IC50 values were determined in the Ussing Chamber assay: […]

First: COC(=O)c1ccc(CNC(=O)CN2CCC(NC(N)=NC(=O)c3nc(Cl)c(N)nc3N)CC2)cc1 [Example 6.4]
Second: NC(=O)c1ccc(CNC(=O)CN2CCC(NC(N)=NC(=O)c3nc(Cl)c(N)nc3N)CC2)cc1 [Example 6.8]
The IC50 of the first is 1.7-fold lower: 3 nM for the first, 5 nM for the second.

Going from `NC(=NC(=O)c1nc(Cl)c(N)nc1N)NC1CCN(CC(=O)Nc2cccc(CN3CCOCC3)c2)CC1` [Example 1.9] to `NC(=NC(=O)c1nc(Cl)c(N)nc1N)NC1CCN(CC(=O)Nc2cccc(C(=O)O)c2)CC1` [Example 2.2], the IC50 rises from 1 nM to 31 nM (31-fold). The first is the more potent here.

`COC(=O)CCCN1CCC(NC(N)=NC(=O)c2nc(Cl)c(N)nc2N)CC1` [Example 4.8] and `COC(=O)CN1CCC(NC(N)=NC(=O)c2nc(Cl)c(N)nc2N)CC1` [Example 4.11] are the same in IC50: 27 nM for the first, 27 nM for the second.

First: CCSCCNC(=O)CN1CCC(NC(N)=NC(=O)c2nc(Cl)c(N)nc2N)CC1 [Example 1.30]
Second: CCCCNC(=O)CN1CCC(NC(N)=NC(=O)c2nc(Cl)c(N)nc2N)CC1 [Example 6.6]
The IC50 of the first is 2-fold higher: 2 nM for the first, 1 nM for the second. The second is the more potent here.

Compared with `CCOC(=O)CNC(=O)CN1CCC(NC(N)=NC(=O)c2nc(Cl)c(N)nc2N)CC1` [Example 4.4], `CCOC(=O)CN1CCC(NC(N)=NC(=O)c2nc(Cl)c(N)nc2N)CC1` [Example 4.6] is 1.6-fold lower in IC50: 11 nM for the first, 7 nM for the second.

Going from `NC(=NC(=O)c1nc(Cl)c(N)nc1N)NC1CCN(CC(=O)Nc2cccnc2)CC1` [Example 1.17] to `NC(=NC(=O)c1nc(Cl)c(N)nc1N)NC1CCN(CC(=O)Nc2ccc(S(=O)(=O)O)cc2)CC1` [Example 1.13], the IC50 rises from 7 nM to 23 nM (3.3-fold).

`CN(C)CCN(c1ccc(NC(=O)CN2CCC(NC(N)=NC(=O)c3nc(Cl)c(N)nc3N)CC2)cc1)S(C)(=O)=O` [Example 1.14] and `CN(C)CC(=O)N(C)c1ccc(NC(=O)CN2CCC(NC(N)=NC(=O)c3nc(Cl)c(N)nc3N)CC2)cc1` [Example 1.7] are the same in IC50: 1 nM for the first, 1 nM for the second.

First: COC(=O)c1ccccc1NC(=O)CN1CCC(NC(N)=NC(=O)c2nc(Cl)c(N)nc2N)CC1 [Example 1.18]
Second: NC(=NC(=O)c1nc(Cl)c(N)nc1N)NC1CCN(CC(=O)Nc2ccccc2C(=O)O)CC1 [Example 2.3]
The IC50 of the first is 160-fold lower: 0.3 nM for the first, 47 nM for the second. The first is the more potent here.

Going from `COC(=O)Cn1ccc(NC(=O)CN2CCC(NC(N)=NC(=O)c3nc(Cl)c(N)nc3N)CC2)cc1=O` [Example 1.16] to `NC(=NC(=O)c1nc(Cl)c(N)nc1N)NC1CCN(CC(=O)NCc2ccc(S(N)(=O)=O)cc2)CC1` [Example 1.26], the IC50 falls from 18 nM to 3 nM (6-fold). The second is the more potent here.

Going from `NC(=NC(=O)c1nc(Cl)c(N)nc1N)NC1CCN(CCCS(=O)(=O)O)CC1` [Example 4.23] to `CCS(=O)(=O)CCN1CCC(NC(N)=NC(=O)c2nc(Cl)c(N)nc2N)CC1` [Example 4.3], the IC50 falls from 147 nM to 10 nM (15-fold). The second is the more potent here.

Compared with `CN(C)CCNC(=O)c1ccccc1NC(=O)CN1CCC(NC(=N)NC(=O)c2nc(Cl)c(N)nc2N)CC1` [Example 3.1], `N=C(NC(=O)c1nc(Cl)c(N)nc1N)NC1CCN(CC(=O)Nc2ccccc2)CC1` [Example 1.1] is 9.5-fold lower in IC50: 19 nM for the first, 2 nM for the second.

`CC(C)(C)OC(=O)CN1CCC(NC(N)=NC(=O)c2nc(Cl)c(N)nc2N)CC1` [Example 4.18] and `CC(C)(C)NC(=O)CN1CCC(NC(N)=NC(=O)c2nc(Cl)c(N)nc2N)CC1` [Example 4.22] are within 1.5-fold of each other in IC50: 3 nM for the first, 4 nM for the second.

First: CN(Cc1ccccc1)C(=O)CN1CCC(NC(N)=NC(=O)c2nc(Cl)c(N)nc2N)CC1 [Example 1.21]
Second: NC(=NC(=O)c1nc(Cl)c(N)nc1N)NC1CCN(CC2CCCC2)CC1 [Example 4.13]
The IC50 of the first is 1.7-fold lower: 18 nM for the first, 30 nM for the second. The first is the more potent here.

Work on `COCCOCCOCCOCCN1CCC(NC(N)=NC(=O)c2nc(Cl)c(N)nc2N)CC1` [Example 4.12] yielded an IC50 of 55 nM.
